{"source": "PubChem BioAssay AID328", "about": "(DTP/NCI, 2004)", "tested_on": "BDF1 mice, P388 leukemia ip, median survival T/C", "assay": "NCI In Vivo Anticancer Drug Screen. Data for tumor model P388 Leukemia (intraperitoneal) in B6D2F1 (BDF1) mice", "conditions": "endpoint: median survival time, higher = longer survival", "outline": "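Read-out is survival of treated animals expressed relative to the vehicle group, as a T/C ratio.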", "key": {"[1]": {"conditions": "dose: 100.0 mg/kg/injection, schedule: Q04DX003 (ip), vehicle: saline"}, "[2]": {"conditions": "dose: 200.0 mg/kg/injection, schedule: Q01DX009 (ip), vehicle: saline with Tween-80"}}, "note": "Where “and” joins values, the source holds several entries; their conditions need not be identical. Equal values may be shown once. Toxic doses and inconclusive results are not listed.", "data": [{"smiles": "CSc1ncnc2c1ncn2C1CCCO1", "note": "(stereo unspecified)", "values": [{"measurement": "T/C", "setting": "dose: 25.0 mg/kg/injection, schedule: Q01DX009 (ip), vehicle: Klucel (hydroxypropylcellulose) (HPC)", "value": "95 % of control"}, {"measurement": "T/C", "setting": "dose: 50.0 mg/kg/injection, schedule: Q01DX009 (ip), vehicle: Klucel (hydroxypropylcellulose) (HPC)", "value": "119 % of control"}, {"measurement": "T/C", "setting": "dose: 100.0 mg/kg/injection, schedule: Q01DX009 (ip), vehicle: Klucel (hydroxypropylcellulose) (HPC)", "value": "109 % of control"}, {"measurement": "T/C", "setting": "[1]", "value": "104 % of control"}, {"measurement": "T/C", "setting": "dose: 150.0 mg/kg/injection, schedule: Q01DX009 (ip), vehicle: Klucel (hydroxypropylcellulose) (HPC)", "value": "87 % of control"}]}, {"smiles": "O=C(Nc1cccc(C(F)(F)F)c1)Nc1ccc(Oc2ccc(Cl)cc2)cc1S(=O)(=O)O", "values": [{"measurement": "T/C", "setting": "dose: 50.0 mg/kg/injection, schedule: Q04DX003 (ip), vehicle: saline sonified", "value": "104 % of control"}, {"measurement": "T/C", "setting": "dose: 100.0 mg/kg/injection, schedule: Q04DX003 (ip), vehicle: saline sonified", "value": "100 % of control"}]}, {"smiles": "C=C(C)C1CC2(C)C(C)CC(O)CC2C(OC(=O)C=C(C)C)C1O", "note": "(stereo unspecified)", "values": [{"measurement": "T/C", "setting": "dose: 0.75 mg/kg/injection, schedule: Q01DX009 (ip), vehicle: saline", "value": "94 % of control"}, {"measurement": "T/C", "setting": "dose: 1.5 mg/kg/injection, schedule: Q01DX009 (ip), vehicle: saline", "value": "94 % of control"}, {"measurement": "T/C", "setting": "dose: 3.0 mg/kg/injection, schedule: Q01DX009 (ip), vehicle: saline", "value": "103 % of control"}, {"measurement": "T/C", "setting": "dose: 6.0 mg/kg/injection, schedule: Q01DX009 (ip), vehicle: saline", "value": "89 % of control"}]}, {"smiles": "OC(COc1ccccc1)CC(O)(C(F)(F)F)C(F)(F)F", "note": "(stereo unspecified)", "values": [{"measurement": "T/C", "setting": "dose: 100.0 mg/kg/injection, schedule: Q01DX001 (ip), vehicle: saline with Tween-80", "value": "95 % of control"}, {"measurement": "T/C", "setting": "dose: 200.0 mg/kg/injection, schedule: Q01DX001 (ip), vehicle: saline with Tween-80", "value": "104 % of control"}, {"measurement": "T/C", "setting": "dose: 400.0 mg/kg/injection, schedule: Q01DX001 (ip), vehicle: saline with Tween-80", "value": "104 % of control"}]}, {"smiles": "CC(CO)S(=O)(=O)C(C)(C)C", "note": "(stereo unspecified)", "values": [{"measurement": "T/C", "setting": "[1]", "value": "94 % of control"}, {"measurement": "T/C", "setting": "dose: 200.0 mg/kg/injection, schedule: Q04DX003 (ip), vehicle: saline", "value": "95 % of control"}, {"measurement": "T/C", "setting": "dose: 400.0 mg/kg/injection, schedule: Q04DX003 (ip), vehicle: saline", "value": "94 % of control"}]}, {"smiles": "COC(=O)Cc1c[nH]c(=O)[nH]c1=O", "values": [{"measurement": "T/C", "setting": "dose: 50.0 mg/kg/injection, schedule: Q01DX009 (ip), vehicle: water", "value": "117 % of control"}, {"measurement": "T/C", "setting": "dose: 100.0 mg/kg/injection, schedule: Q01DX009 (ip), vehicle: water", "value": "102 % of control"}, {"measurement": "T/C", "setting": "dose: 100.0 mg/kg/injection, schedule: Q04DX003 (ip), vehicle: water", "value": "99 % of control"}, {"measurement": "T/C", "setting": "dose: 200.0 mg/kg/injection, schedule: Q01DX009 (ip), vehicle: water", "value": "96 % of control"}, {"measurement": "T/C", "setting": "dose: 200.0 mg/kg/injection, schedule: Q04DX003 (ip), vehicle: water", "value": "94 % of control"}]}, {"smiles": "CC(=O)C1CC2c3ccccc3C1c1ccccc12", "note": "(stereo unspecified)", "values": [{"measurement": "T/C", "setting": "dose: 100.0 mg/kg/injection, schedule: Q01DX009 (ip), vehicle: saline with Tween-80", "value": "95 % of control"}, {"measurement": "T/C", "setting": "[2]", "value": "87 % of control"}]}, {"smiles": "COC1(OC)OC(c2ccccc2)=C(C#N)C(/C=C\\c2ccccc2)C1(OC)OC", "note": "(stereo unspecified)", "values": [{"measurement": "T/C", "setting": "dose: 12.5 mg/kg/injection, schedule: Q01DX009 (ip), vehicle: saline with Tween-80", "value": "100 % of control"}, {"measurement": "T/C", "setting": "dose: 25.0 mg/kg/injection, schedule: Q01DX009 (ip), vehicle: saline with Tween-80", "value": "91 % of control"}, {"measurement": "T/C", "setting": "dose: 50.0 mg/kg/injection, schedule: Q01DX009 (ip), vehicle: saline with Tween-80", "value": "90 % of control and 91 % of control"}, {"measurement": "T/C", "setting": "[2]", "value": "106 % of control"}]}, {"smiles": "O/N=C(\\C[n+]1ccccc1)c1ccc2ccccc2c1", "values": [{"measurement": "T/C", "setting": "dose: 1.56 mg/kg/injection, schedule: Q01DX009 (ip), vehicle: Klucel (hydroxypropylcellulose) (HPC)", "value": "113 % of control"}, {"measurement": "T/C", "setting": "dose: 3.12 mg/kg/injection, schedule: Q01DX009 (ip), vehicle: Klucel (hydroxypropylcellulose) (HPC)", "value": "120 % of control"}, {"measurement": "T/C", "setting": "dose: 3.12 mg/kg/injection, schedule: Q01DX009 (ip), vehicle: saline", "value": "107 % of control"}, {"measurement": "T/C", "setting": "dose: 6.25 mg/kg/injection, schedule: Q01DX009 (ip), vehicle: Klucel (hydroxypropylcellulose) (HPC)", "value": "122 % of control"}, {"measurement": "T/C", "setting": "dose: 6.25 mg/kg/injection, schedule: Q01DX009 (ip), vehicle: saline", "value": "120 % of control"}, {"measurement": "T/C", "setting": "dose: 50.0 mg/kg/injection, schedule: Q01DX009 (ip), vehicle: saline", "value": "106 % of control"}]}, {"smiles": "CCNC(=O)OCc1c(COC(=O)NCC)c(-c2ccc(F)cc2)n2c1CCC2", "values": [{"measurement": "T/C", "setting": "dose: 25.0 mg/kg/injection, schedule: Q01DX009 (ip), vehicle: other", "value": "98 % of control"}]}, {"smiles": "COC(=O)[C@H]1[C@H]2C[C@@H]3c4[nH]c5cc(OC)ccc5c4CCN3C[C@H]2C[C@@H](OC(=O)c2cc(OC)c(OC)c(OC)c2)[C@@H]1OC", "values": [{"measurement": "T/C", "setting": "dose: 0.37 mg/kg/injection, schedule: Q01DX009 (ip), vehicle: saline with Tween-80", "value": "95 % of control"}]}, {"smiles": "CN(N=O)c1ccc(/C=C/c2ccnc3ccccc23)cc1", "values": [{"measurement": "T/C", "setting": "dose: 100.0 mg/kg/injection, schedule: Q01DX009 (ip), vehicle: saline sonified", "value": "115 % of control"}]}, {"smiles": "CCOC(=O)NP(=O)(N1CC1(C)C)N1CC1(C)C", "note": "(stereo unspecified)", "values": [{"measurement": "T/C", "setting": "dose: 31.3 mg/kg/injection, schedule: Q01DX010 (ip), vehicle: saline", "value": "175 % of control"}, {"measurement": "T/C", "setting": "dose: 62.5 mg/kg/injection, schedule: Q01DX010 (ip), vehicle: saline", "value": "175 % of control"}, {"measurement": "T/C", "setting": "dose: 125.0 mg/kg/injection, schedule: Q01DX010 (ip), vehicle: saline", "value": "200 % of control"}, {"measurement": "T/C", "setting": "dose: 250.0 mg/kg/injection, schedule: Q01DX010 (ip), vehicle: saline", "value": "225 % of control"}]}]}
